Results reported in patent publication US20180362543A1, “HIV REPLICATION INHIBITOR” (Shionogi & Co., Ltd., priority 2013, published 2018).
pEC50: −log10 of the molar value.

System: HIV (HTLV-III B strain)
Test: HIV replication inhibition assay (MTT, MT-4 cells)
Format: cell-based
Settings: Human immunodeficiency virus 1, MT4, 96 h, 4 days culture, concentration at which cell cytotoxicity by virus is inhibited 50%
Experimental: HIV (HTLV-III B strain) persistent infected human T cell strain Molt-4 clone 8 was cultured in 10% Fetal Bovine Serum-containing RPMI-1640 medium and the supernatant was filtrated, then the virus titer was measured and the solution was stored at −80° C. Each anti-human immunodeficiency virus active substance was diluted with the above cultured medium to the designated concentration, which was dispensed into 96 well micro plate by 50 μL. Next, a MT-4 cell suspended liquid was dispensed by 100 μL (2.5×10^4 cells), then the above HIV-containing supernatant diluted with the above cultured medium was added thereto by 50 μL (60 pfu (plaque forming unit)).
The obtained mixture was cultured at 37° C. in CO2 incubator for four days, then 3-(4,5-dimehylthiazole-2-yl)-2,5-diphenyltetrazolynium bromide (MTT) 5 mg/mL in PBS was added to each well by 30 μL, followed by 1 hr-cultivation. In this step, as formazan was precipitated by reduction of MTT in living cells, the cell supernatant was removed from all well by 150 μL, then a 150 μL of solution (10% Triton X-100 and […]) was added thereto, followed by shaking with a plate mixer, to elute formazan. The formazan was measured with a microreader at OD: 560 nm and 690 nm (wavelength) and the result was compared with the reference. EC50 means the compound concentration at which cell cytotoxicity by virus is inhibited 50%.

| SMILES | pEC50 |
| --- | --- |
| Cc1ccc(-c2c(C)c3c(c(C)c2[C@H](OC(C)(C)C)C(=O)O)NC(=O)N(C2CCCCC2)CC3)cc1 [Compound 71] | 7.80 |
| Cc1c(-c2c(C)c3c(c(C)c2[C@H](OC(C)(C)C)C(=O)O)N(S(C)(=O)=O)Cc2ccc(F)c(F)c2-3)ccc2c1NCCO2 [Compound 314] | 8.28 |
| Cc1ccc(-c2c(C)c3c(c(C)c2[C@H](OC(C)(C)C)C(=O)O)N(S(C)(=O)=O)Cc2ccccc2-3)cc1 [Compound 20] | 7.89 |
| Cc1ccc(-c2c(C)c3c(c(C)c2[C@H](OC(C)(C)C)C(=O)O)NC(=O)c2ccc(C)nc2O3)cc1 [Compound 48] | 7.54 |
| Cc1c(-c2c(C)c3c(c(C)c2[C@H](OC(C)(C)C)C(=O)O)N(S(C)(=O)=O)Cc2cc(F)cnc2-3)ccc2c1CCCO2 [Compound 320] | 8.51 |
| Cc1ccc(-c2c(C)c3c(c(C)c2[C@H](OC(C)(C)C)C(=O)O)N(S(C)(=O)=O)Cc2oc(C)nc2-3)cc1 [Compound 305] | 7.55 |

Same assay, conditions: Human immunodeficiency virus 1, MT4, 96 h, Table A-2, four days

| pEC50 | SMILES |
| --- | --- |
| 7.77 | Cc1ccc(-c2c([C@H](OC(C)(C)C)C(=O)O)c(C)c3nc(O)c4cc5ccsc5nc4c3c2C)cc1 [Compound 101] |
| 7.77 | Cc1ccc(-c2c(C)c3c(c(C)c2[C@H](OC(C)(C)C)C(=O)O)N(S(C)(=O)=O)Cc2ccc(C)cc2-3)cc1 [Compound 110] |
| 7.96 | Cc1ccc(-c2c(C)c3c(c(C)c2[C@H](OC(C)(C)C)C(=O)O)NS(=O)(=O)N(C2CCCCC2)CC3)cc1 [Compound 127] |
| 8.01 | Cc1ccc(-c2c(C)c3c(c(C)c2[C@H](OC(C)(C)C)C(=O)O)NS(=O)(=O)Cc2ccc(F)cc2-3)cc1 [Compound 95] |
| 7.92 | Cc1ccc(-c2c(C)c3c(c(C)c2[C@H](OC(C)(C)C)C(=O)O)NS(=O)(=O)N(CC2CCCCC2)CC3)cc1 [Compound 130] |
| 8.07 | Cc1ccc(-c2c(C)c3c(c(C)c2[C@H](OC(C)(C)C)C(=O)O)NC(=O)C2(C[C@@H]4CC[C@H]2C4)N3)cc1 (stereo partly drawn) [Compound 113] |
| 7.01 | Cc1ccc(-c2c([C@H](OC(C)(C)C)C(=O)O)c(C)c3ncc4cc5ccccc5nc4c3c2C)cc1 [Compound 99] |
| 8.11 | Cc1ccc(-c2c(C)c3c(c(C)c2[C@H](OC(C)(C)C)C(=O)O)NC(=O)C2(CCC2)N3)cc1 [Compound 111] |

Same assay, conditions: Human immunodeficiency virus 1, MT4, 96 h, Table A-3, four days

| pEC50 | SMILES |
| --- | --- |
| 7.68 | Cc1ccc(-c2c(C)c3c(c(C)c2[C@H](OC(C)(C)C)C(=O)O)N(S(C)(=O)=O)Cc2ccc(F)cc2-3)cc1 [Compound 161] |
| 7.68 | Cc1ccc(-c2c(C)c3c(c(C)c2[C@H](OC(C)(C)C)C(=O)O)NS(=O)(=O)N(c2ccc(F)cc2)CC3)cc1 [Compound 171] |
| 8.51 | Cc1ccc(-c2c(C)c3c(c(C)c2[C@H](OC(C)(C)C)C(=O)O)NC(=O)C2(CCCCCC2)N3)cc1 [Compound 140] |
| 8.28 | Cc1ccc(-c2c(C)c3c(c(C)c2[C@H](OC(C)(C)C)C(=O)O)N(S(C)(=O)=O)Cc2cc(C(F)(F)F)ccc2-3)cc1 [Compound 159] |
| 7.41 | Cc1ccc(-c2c(C)c3c(c(C)c2[C@H](OC(C)(C)C)C(=O)O)N(S(C)(=O)=O)Cc2cccnc2-3)cc1 [Compound 145] |
| 8.06 | Cc1ccc(-c2c(C)c3c(c(C)c2[C@H](OC(C)(C)C)C(=O)O)NC(=O)N(C2CCCCCC2)CC3)cc1 [Compound 148] |
| 7.41 | Cc1ccc(-c2c(C)c3c(c(C)c2[C@H](OC(C)(C)C)C(=O)O)N(S(=O)(=O)C2CC2)Cc2ccccc2-3)cc1 [Compound 155] |
| 8.39 | Cc1ccc(-c2c(C)c3c(c(C)c2[C@H](OC(C)(C)C)C(=O)O)N(S(C)(=O)=O)Cc2cc(OC(F)(F)F)ccc2-3)cc1 [Compound 164] |
| 8.46 | Cc1ccc(-c2c(C)c3c(c(C)c2[C@H](OC(C)(C)C)C(=O)O)N(S(C)(=O)=O)Cc2c-3ccc(C)c2F)cc1 [Compound 141] |
| 7.80 | Cc1ccc(-c2c(C)c3c(c(C)c2[C@H](OC(C)(C)C)C(=O)O)NC(=O)N(C(c2ccccc2)c2ccccc2)CC3)cc1 [Compound 152] |

Same assay, conditions: Human immunodeficiency virus 1, MT4, 96 h, Table A-4, four days

| pEC50 | SMILES |
| --- | --- |
| 7.24 | COc1ccc2c(O)nc3c(C)c([C@H](OC(C)(C)C)C(=O)O)c(-c4ccc(C)cc4)c(C)c3c2c1 [Compound 226] |
| 7.42 | Cc1ccc(-c2c([C@H](OC(C)(C)C)C(=O)O)c(C)c3nc(O)c4cc5ccccc5nc4c3c2C)cc1 [Compound 233] |
| 8.27 | Cc1c(-c2c(C)c3c(c(C)c2[C@H](OC(C)(C)C)C(=O)O)N(S(C)(=O)=O)Cc2cccc(F)c2-3)ccc2c1NCCO2 [Compound 235] |
| 7.34 | Cc1ccc(-c2c([C@H](OC(C)(C)C)C(=O)O)c(C)c3nc(O)c4ccc(C(F)(F)F)nc4c3c2C)cc1 [Compound 216] |
| 7.92 | Cc1ccc(-c2c([C@H](OC(C)(C)C)C(=O)O)c(C)c3nc(O)c4cc5c(cc4c3c2C)OCCO5)cc1 [Compound 232] |
| 7.05 | Cc1ccc(-c2c([C@H](OC(C)(C)C)C(=O)O)c(C)c3nc(O)c4c(c3c2C)CCCN4)cc1 [Compound 221] |
| 8.14 | Cc1ccc(-c2c(C)c3c(c(C)c2[C@H](OC(C)(C)C)C(=O)O)N(S(C)(=O)=O)Cc2ccc(F)c(F)c2-3)cc1 [Compound 220] |

Same assay, conditions: Human immunodeficiency virus 1, MT4, 96 h, Table A-5, four days

| pEC50 | SMILES |
| --- | --- |
| 7.57 | Cc1c(-c2ccc3c(c2)C(F)(F)CCO3)c([C@H](OC(C)(C)C)C(=O)O)c(C)c2c1-c1c(F)cccc1CN2S(C)(=O)=O [Compound 259] |
| 7.60 | Cc1c(-c2ccc3c4c(ccnc24)CCO3)c([C@H](OC(C)(C)C)C(=O)O)c(C)c2c1-c1c(F)cccc1CN2S(C)(=O)=O [Compound 262] |
| 7.26 | Cc1ccc(-c2c(C)c3c(c(C)c2[C@H](OC(C)(C)C)C(=O)O)N(S(C)(=O)=O)CC2CCCCN32)cc1 (stereo partly drawn) [Compound 285] |
| 8.06 | Cc1c(-c2ccc3c(c2F)NCCO3)c([C@H](OC(C)(C)C)C(=O)O)c(C)c2c1-c1c(F)cccc1CN2S(C)(=O)=O [Compound 282] |

Same assay, conditions: Human immunodeficiency virus 1, MT4, 96 h, Table A-7, four days

| pEC50 | SMILES |
| --- | --- |
| 8.70 | Cc1ccc2c(c1)CN(S(C)(=O)=O)c1c(C)c([C@H](OC(C)(C)C)C(=O)O)c(-c3ccc4c(c3C)NCCO4)c(C)c1-2 [Compound 348] |
| 8.17 | Cc1ccc2c(c1)-c1c(C)c(-c3ccc4c(c3C)NCCO4)c([C@H](OC(C)(C)C)C(=O)O)c(C)c1N(S(C)(=O)=O)C2 [Compound 345] |
| 7.33 | Cc1c(-c2c(C)c3c(c(C)c2[C@H](OC(C)(C)C)C(=O)O)N(C)Cc2cc(F)cc(F)c2-3)ccc2c1NCCO2 [Compound 344] |
| 8.00 | Cc1ccc(-c2c(C)c3c(c(C)c2[C@H](OC(C)(C)C)C(=O)O)N(S(C)(=O)=O)Cc2cccc(F)c2-3)cc1N [Compound 352] |

Same assay, conditions: Human immunodeficiency virus 1, MT4, 96 h, Table A-8 (continuation of Tables A-1 to A-9), four days

| pEC50 | SMILES |
| --- | --- |
| 8.33 | COc1cc2c(cn1)-c1c(C)c(-c3ccc(C)cc3C)c([C@H](OC(C)(C)C)C(=O)O)c(C)c1N(S(C)(=O)=O)C2 [Compound 393] |
| 8.64 | COc1cc2c(cn1)-c1c(C)c(-c3ccc(Cl)cc3)c([C@H](OC(C)(C)C)C(=O)O)c(C)c1N(S(C)(=O)=O)C2 [Compound 379] |
| 7.47 | Cc1ccc(-c2c(C)c3c(c(C)c2[C@H](OC(C)(C)C)C(=O)O)N(S(C)(=O)=O)Cc2ccc4c(c2-3)OCCO4)cc1 [Compound 395] |
| 7.10 | Cc1ccc(-c2c(C)c3c(c(C)c2[C@H](OC(C)(C)C)C(=O)O)N(S(C)(=O)=O)Cc2cc(F)c(N(C)C)nc2-3)cc1 [Compound 398] |
| 7.85 | Cc1c(-c2ccc3c(c2)NCC3)c([C@H](OC(C)(C)C)C(=O)O)c(C)c2c1-c1c(F)cccc1CN2S(C)(=O)=O [Compound 363] |
| 7.89 | Cc1ccc2c(n1)CN(S(C)(=O)=O)c1c(C)c([C@H](OC(C)(C)C)C(=O)O)c(-c3ccc(Cl)cc3)c(C)c1-2 [Compound 380] |
| 8.08 | Cc1ccc(-c2c(C)c3c(c(C)c2[C@H](OC(C)(C)C)C(=O)O)N(S(C)(=O)=O)Cc2cc(C)cnc2-3)c(C)c1 [Compound 384] |
| 7.80 | Cc1c(-c2ccc(Cl)c3[nH]ccc23)c([C@H](OC(C)(C)C)C(=O)O)c(C)c2c1-c1c(F)cccc1CN2S(C)(=O)=O [Compound 364] |
| 8.39 | Cc1ccc(-c2c(C)c3c(c(C)c2[C@H](OC(C)(C)C)C(=O)O)N(S(C)(=O)=O)Cc2cc(C(F)(F)F)cnc2-3)cc1 [Compound 391] |
| 8.30 | Cc1ccc(-c2c(C)c3c(c(C)c2[C@H](OC(C)(C)C)C(=O)O)N(S(C)(=O)=O)Cc2cccc(F)c2-3)c(O)c1 [Compound 381] |

Same assay, conditions: Human immunodeficiency virus 1, MT4, 96 h, Table A-9, four days

| pEC50 | SMILES |
| --- | --- |
| > 8.11 | Cc1ccc(-c2c(C)c3c(c(C)c2[C@H](OC(C)(C)C)C(=O)O)N(S(C)(=O)=O)Cc2cc(Cl)cnc2-3)cc1 [Compound 407] |

Same assay, conditions: Table A-2, four days

| pEC50 | SMILES |
| --- | --- |
| 7.37 | Cc1ccc(-c2c(C)c3c(c(C)c2[C@H](OC(C)(C)C)C(=O)O)NS(=O)(=O)Cc2ccc(C)cc2-3)cc1 [Compound 119] |

Same assay, conditions: Table A-5, four days

| pEC50 | SMILES |
| --- | --- |
| 7.43 | Cc1ccc(-c2c(C)c3c(c(C)c2[C@H](OC(C)(C)C)C(=O)O)N(S(C)(=O)=O)CC2CCCCN32)cc1 (stereo partly drawn) [Compound 288] |

Same assay, conditions: Table A-7, four days

| pEC50 | SMILES |
| --- | --- |
| 7.27 | Cc1c(-c2ccccc2)c([C@H](OC(C)(C)C)C(=O)O)c(C)c2c1-c1ncc(F)cc1CN2S(C)(=O)=O [Compound 326] |
| 7.96 | Cc1c(-c2ccc(Cl)cc2)c([C@H](OC(C)(C)C)C(=O)O)c(C)c2c1-c1ncc(F)cc1CN2S(C)(=O)=O [Compound 325] |
